Assay results as given in ChEMBL document CHEMBL5223150, “Targeting the PI3K/AKT/mTOR Signaling Pathway in the Treatment of Human Diseases: Current Status, Trends, and Solutions” (J Med Chem, 2022).

Test: Metabolic stability in human liver microsomes assessed as compound remaining after 1 hr
Format: ADME, Microsome
Details: read-out: Stability

Question: With `O=C(N1CCN(c2ncnc3[nH]nc(Cl)c23)CC1)C1(c2ccc(Cl)c(Cl)c2)CCNCC1` as the compound, how does the remaining at 1 h read?
Answer: 80%
